Data taken from patent publication US9610294B2, “Methods and compositions for the treatment of fluid accumulation in and/or under the retina” (UNIVERSITE PARIS DESCARTES, priority 2010, dated 2017).
Entries after “also recorded” stand apart in the source; their conditions may differ.

How the values were obtained:
ENaC-α = ENaC-α immunolocalization in retina of aldosterone-injected eyes; assay type: in vivo, Lewis rats; conditions: aldosterone-injected vs saline-injected eyes
Description: (§1) Anesthesia of rats was induced by intramuscular injection of ketamine (100 mg/kg, Virbac, Carros, France) and chlorpromazine (0.65 mg/kg, LARGACTIL®, Sanofi Aventis, Livron sur Drome, France). Intravitreous injections were performed using microfine (300 μl) syringes with 30 G needles under topical anesthesia (tetracaine 1%, Aldrich, Lyon, France). Rat eyes were injected with 5 μl aldosterone diluted in 0.9% saline to obtain a concentration of 200 nM for injection, corresponding to a final concentration of 20 nM in the vitreous. Control rat eyes were injected with 5 μl saline. Twenty-four hrs after injection, rats were sacrificed. Eyes were then removed for retinal flat mounting, immunohistochemistry and morphological analysis respectively.
Eyes were snap frozen in Tissue-Tek OCT-compound (Bayer Diagnostics, Puteaux, France). Ten μm cryostat sections of rat eyes were fixed in 4% PFA for 15 min and permeabilized with 0.1% Triton X-I00 for 30 min. Unspecific binding sites were blocked with 5% normal goat serum for 1 hr. The sections were then incubated with primary antibodies for 1 hr at room temperature, washed in PBS, and further incubated with secondary antibodies for 1 hr. […] Images were taken using a fluorescence microscope (Olympus BX51, Rungis, France) equipped with a CCD camera (Olympus DP70). […]

AQP4 = AQP4 immunofluorescence and flat-mount confocal imaging in retina of aldosterone-injected eyes; assay type: in vivo, Lewis rats; conditions: aldosterone-injected vs sham-injected eyes
Description: as §1
Eyes were fixed for 15 min in 4% paraformaldehyde (PFA, LADD, Inland Europe, Conflans-sur-Lanterne, France). After washing, retinas were isolated, cut by 4 orthogonal incisions and post-fixed with acetone 100% at −20° C. for 15 min. […]
Eyes were snap frozen in Tissue-Tek OCT-compound (Bayer Diagnostics, Puteaux, France). […] Images were taken using a fluorescence microscope (Olympus BX51, Rungis, France) equipped with a CCD camera (Olympus DP70). […]

Question: How did the “ENaC-α expression intensity and number of expressing cells in retina” value (ENaC-α) turn out when `C[C@]12CCC(=O)C=C1CC[C@@H]1[C@@H]2[C@@H](O)C[C@]2(C=O)[C@@H](C(=O)CO)CC[C@@H]12` [aldosterone] was run?
Answer: increased in the INL

Question: What about the “AQP4 localization / pattern of expression in retina” value (AQP4) of the same molecule?
Answer: additional localization; also recorded: extends all along RMG prolongations up to the OLM in their apical microvilli; also recorded: perivascular AQP4 fluorescence is more intense; also recorded: additional mislocalization
